Consider 24 compounds from patent publication US20060148858A1, “1, 2-Azole derivatives with hypoglycemic and hypolipidemic activity” (priority 2002, published 2006).

The melting point is the temperature of the solid-liquid transition.

The compound `COc1ccc(CC(=O)O)cc1OCCCc1cn(-c2ccc(C(F)(F)F)cn2)nc1C(C)C` [Example 183, [3-(3-{3-isopropyl-1-[5-(trifluoromethyl)-2-pyridyl]-1H-pyrazol-4-yl}propoxy)-4-methoxyphenyl]acetic acid] yielded a melting point of 122 to 123 °C.
Under `O=C(O)c1ccc(OCCCCc2cc(-c3ccc(C(F)(F)F)cc3)no2)cc1` [Example 12, 4-(4-{3-[4-(trifluoromethyl)phenyl]-5-isoxazolyl}butoxy)benzoic acid] stands 170 to 171 °C; under `CC(C)c1nn(-c2ccc(C(F)(F)F)cc2)cc1COc1cccc(CC(=O)O)c1` [Example 178, [3-({3-isopropyl-1-[4-(trifluoromethyl)phenyl]-1H-pyrazol-4-yl}methoxy)phenyl]acetic acid], 92 to 93 °C.
In turn, `O=C(O)CCc1cc(OCCCc2cn(-c3ccc(C(F)(F)F)cn3)nc2OCc2ccccc2)nn1-c1ccccc1` [Example 71, 3-[3-(3-{3-(benzyloxy)-1-[5-(trifluoromethyl)-2-pyridinyl]-1H-pyrazol-4-yl}propoxy)-1-phenyl-1H-pyrazol-5-yl]propanoic acid] gave a melting point of 159 to 161 °C.
In turn, `CCOc1nn(-c2ccc(C(F)(F)F)cn2)cc1CCCOc1cc(OC)ccc1CCC(=O)O` [Example 143, 3-[2-(3-{3-ethoxy-1-[5-(trifluoromethyl)-2-pyridyl]-1H-pyrazol-4-yl}propoxy)-4-methoxyphenyl]propionic acid] had a melting point of 115 to 116 °C.
The figure for `CCOc1nn(-c2ccc(C(F)(F)F)cn2)cc1CCCOc1ccc(CCC(=O)O)c(OCc2ccccc2)c1` [Example 112, 3-[2-(benzyloxy)-4-(3-{3-ethoxy-1-[5-(trifluoromethyl)-2-pyridinyl]-1H-pyrazol-4-yl}propoxy)phenyl]propanoic acid] is 128 to 130 °C; for `CCOc1cc(OCCCCc2cn(-c3ccc(C(F)(F)F)cn3)nc2OCC)ccc1CCC(=O)O` [Example 107, 3-[2-ethoxy-4-(4-{3-ethoxy-1-[5-(trifluoromethyl)-2-pyridinyl]-1H-pyrazol-4-yl}butoxy)phenyl]propanoic acid] it is 101 to 102 °C.
In turn, `Cc1nn(-c2ccccn2)cc1COc1ccc(CCC(=O)O)cc1` [Example 372, 3-{4-[3-methyl-1-(2-pyridinyl)-1H-pyrazol-4-ylmethoxy]phenyl}propionic acid] yielded a melting point of 129 to 130 °C.
Compound `O=C(O)Cc1cccc(OCCCCc2cc(-c3ccc(C(F)(F)F)cc3)no2)c1` [Example 16, [3-(4-{3-[4-(trifluoromethyl)phenyl]-5-isoxazolyl}butoxy)phenyl]acetic acid] returned a melting point of 134 to 135 °C.
The compound `CCOc1cc(OCCCc2cn(-c3ccc(C(F)(F)F)cn3)nc2O)ccc1CCC(=O)OC` [Example 171, methyl 3-[2-ethoxy-4-(3-{3-hydroxy-1-[5-(trifluoromethyl)-2-pyridyl]-1H-pyrazol-4-yl}propoxy)phenyl]propanoate] came in with a melting point of 147 to 148 °C.
`Cn1ncc(CC(=O)O)c1OCCCc1cn(-c2ccc(C(F)(F)F)cn2)nc1C1CCCCC1` [Example 325, [5-(3-{3-cyclohexyl-1-[5-(trifluoromethyl)-2-pyridinyl]-1H-pyrazol-4-yl}propoxy)-1-methyl-1H-pyrazol-4-yl]acetic acid] showed a melting point of 137 to 138 °C.
The figure for `CCCc1nn(-c2ccc(C(F)(F)F)cn2)cc1CCCOc1cc(CC(=O)O)ccc1OC` [Example 80, [4-methoxy-3-(3-{3-propyl-1-[5-(trifluoromethyl)-2-pyridinyl]-1H-pyrazol-4-yl}propoxy)phenyl]acetic acid] is 124 to 126 °C; for `CCc1cccc(CC(=O)O)c1OCCCc1cn(-c2ccc(Cl)cn2)nc1C(C)C` [Example 243, (2-{3-[1-(5-chloro-2-pyridinyl)-3-isopropyl-1H-pyrazol-4-yl]propoxy}-3-ethylphenyl)acetic acid] it is 142 to 143 °C; for `O=C(O)CCCc1cccc(OCc2cn(-c3ccc(C(F)(F)F)cn3)nc2C2CCCCC2)c1` [Example 195, 4-(3-{3-cyclohexyl-1-[5-(trifluoromethyl)-2-pyridyl]-1H-pyrazol-4-yl}methoxyphenyl)butanoic acid] it is 128 to 129 °C.
Compound `CC(C)c1nn(-c2ccc(C(F)(F)F)cn2)cc1CCCOc1nn(C2CCCCC2)cc1CC(=O)O` [Example 317, [1-cyclohexyl-3-(3-{3-isopropyl-1-[5-(trifluoromethyl)-2-pyridinyl]-1H-pyrazol-4-yl}propoxy)-1H-pyrazol-4-yl]acetic acid] returned a melting point of 116 to 117 °C.
On to `CCOc1nn(-c2ccccn2)cc1CCCOc1ccc(CCC(=O)O)cc1OC` [Example 109, 3-(4-{3-[3-ethoxy-1-(2-pyridinyl)-1H-pyrazol-4-yl]propoxy}-3-methoxyphenyl)propanoic acid], for which the melting point lay within 92 to 93 °C.
Compound `CCCc1nn(-c2ccc(C(F)(F)F)cn2)cc1CCCOc1ccc(CC(=O)O)c(OC)c1` [Example 95, [2-methoxy-4-(3-{3-propyl-1-[5-(trifluoromethyl)-2-pyridyl]-1H-pyrazol-4-yl}propoxy)phenyl]acetic acid] gave a melting point of 135 to 136 °C.
The figure for `CCOc1nn(-c2cc(C(F)(F)F)ccn2)cc1CCCOc1ccc(CCC(=O)O)cc1OC` [Example 287, 3-[4-(3-{3-ethoxy-1-[4-(trifluoromethyl)-2-pyridinyl]-1H-pyrazol-4-yl}propoxy)-3-methoxyphenyl]propanoic acid] is 111 to 112 °C; for `CC(C)c1nn(-c2ccc(C(F)(F)F)cn2)cc1CCCOc1cccc(CCC(=O)O)c1` [Example 23, 3-[3-(3-{3-isopropyl-1-[5-(trifluoromethyl)-2-pyridyl]-1H-pyrazol-4-yl}propoxy)phenyl]propionic acid] it is 102 to 103 °C.
`CCOc1nn(-c2ccccn2)cc1CCCOc1cccc(CC(=O)O)c1` [Example 106, (3-{3-[3-ethoxy-1-(2-pyridinyl)-1H-pyrazol-4-yl]propoxy}phenyl)acetic acid] came in with a melting point of 66 to 67 °C.
`CCc1cnn(CC(=O)O)c1OCCCc1cn(-c2ccc(C(F)(F)F)cn2)nc1C(C)C` [Example 328, [4-ethyl-5-(3-{3-isopropyl-1-[5-(trifluoromethyl)-2-pyridinyl]-1H-pyrazol-4-yl}propoxy)-1H-pyrazol-1-yl]acetic acid] came in with a melting point of 111 to 112 °C.
Regarding `CCOc1nn(-c2ccc(C(F)(F)F)cn2)cc1CCOc1ccccc1CC(=O)O` [Example 57, [2-(2-{3-ethoxy-1-[5-(trifluoromethyl)-2-pyridinyl]-1H-pyrazol-4-yl}ethoxy)phenyl]acetic acid], the melting point was in the range of 134 to 135 °C.
As for `CCCc1nn(-c2ccc(C(F)(F)F)cn2)cc1CCCOc1ccc(F)c(CC(=O)O)c1` [Example 90, [2-fluoro-5-(3-{3-propyl-1-[5-(trifluoromethyl)-2-pyridyl]-1H-pyrazol-4-yl}propoxy)phenyl]acetic acid], the melting point lay in the range of 111 to 112 °C.
The compound `COc1cccc(CC(=O)O)c1OCCCc1cn(-c2cc(C(F)(F)F)ccn2)nc1C(C)C` [Example 363, [2-(3-{3-isopropyl-1-[4-(trifluoromethyl)-2-pyridinyl]-1H-pyrazol-4-yl}propoxy)-3-methoxyphenyl]acetic acid] yielded a melting point of 127 to 128 °C.
